The record followed here is US20100248390A1, “COMPOSITIONS AND METHODS FOR IDENTIFYING LIGANDS OF ODORANT RECEPTORS” (DUKE UNIVERSITY, priority 2009, published 2010).

The structures appear in SMILES notation. Read-outs that look alike come from different tables or passages of the source.

Assay [1] addresses T1, human odorant receptors (ORs) (Homo sapiens, UniProt Q8WZ94).
T1 construct: OR open reading frames were amplified from genomic DNA; expressed in transfected cells; host or cells: Hana3A cells, co-transfected with RTP1S, CRE-luciferase and pRL-SV40
T1 sequence (Q8WZ94 1-311): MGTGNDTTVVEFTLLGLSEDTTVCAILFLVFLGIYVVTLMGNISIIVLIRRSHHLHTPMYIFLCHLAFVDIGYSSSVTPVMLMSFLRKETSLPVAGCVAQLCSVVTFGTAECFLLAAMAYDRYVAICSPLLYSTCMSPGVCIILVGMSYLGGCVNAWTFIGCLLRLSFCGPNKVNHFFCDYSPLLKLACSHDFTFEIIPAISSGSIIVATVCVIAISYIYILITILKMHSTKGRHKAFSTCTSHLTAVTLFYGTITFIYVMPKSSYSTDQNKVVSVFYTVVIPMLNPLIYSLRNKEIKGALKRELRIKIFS
As to the kind of experiment: CRE-luciferase assay of odorant receptor activation (Dual-Glo, Hana3A cells, RTP1S), dose-response EC50. The class given is cell-based. The note with it: receptor OR5P3. The method, boiled down: (§1)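 Hana3A cells were co-transfected with Rho-tagged OR, RTP1S, CRE-luciferase and pRL-SV40, then exposed to odorant in CD293 medium for 4 hrs at 37° C. Firefly luminescence was divided by Renilla and normalized as (LN−Lmin)/(Lmax−Lmin) per plate set. Each dose was tested at least three times, and EC50 came from sigmoidal fits.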

Assay [2] has as its target T2, human odorant receptors (ORs) (Homo sapiens, UniProt O76002).
T2 construct: OR open reading frames were amplified from genomic DNA; expressed in transfected cells; host or cells: Hana3A cells, co-transfected with RTP1S, CRE-luciferase and pRL-SV40
T2 sequence (O76002 1-312): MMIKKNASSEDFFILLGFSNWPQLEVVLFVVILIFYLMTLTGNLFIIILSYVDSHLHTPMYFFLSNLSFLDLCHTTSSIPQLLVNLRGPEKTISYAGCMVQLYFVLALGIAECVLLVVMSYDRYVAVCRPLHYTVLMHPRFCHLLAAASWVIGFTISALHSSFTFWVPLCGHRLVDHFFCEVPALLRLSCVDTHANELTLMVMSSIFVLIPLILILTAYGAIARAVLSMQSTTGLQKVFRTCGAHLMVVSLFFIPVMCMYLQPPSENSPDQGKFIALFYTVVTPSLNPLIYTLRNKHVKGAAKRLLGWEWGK
Described as above. The class given is cell-based. The method, boiled down:
as §1

Where [3] appears, read: read-out: log EC50 (Table 4 value), OR5P3 (converted).

Regarding `C=C(C)C1CC=C(C)C(=O)C1` (single isomer, unassigned; (-)) [(−)-Carvone], the “log EC50, OR5P3” value in assay [1] (0 = no response) is listed as −4.645.
In assay [2], `CCCCCCCCCCO` [1-Decanol] had an EC50 of 384 µM.
Regarding `CCCCCCCO` [1-Heptanol], the EC50 in assay [1] (0 = no response, read-out: log EC50, OR5P3 (converted)) is 1090 µM; in assay [2] (receptor OR2J2, 0 = no response, read-out: log EC50, OR2J2 (converted)) it was 536 µM.
Take `C=C(C)[C@H]1CC=C(C)C(=O)C1` [(+)-Carvone]: in assay [1] (0 = no response), the “log EC50, OR5P3” value was −5.173.
As to `CC(=O)c1ccccc1` [Acetophenone], in assay [1] (setting [3]), the 50% effective concentration (EC50) was 126 µM.
Consider `O=c1ccc2ccccc2o1` [Coumarin], for which the EC50 in assay [1] (setting [3]) is 5.62 µM; in assay [2] (receptor OR2J2, read-out: log EC50 (Table 4 value), OR2J2 (converted)), 274 µM.
